Laboratory results published in article PMC10054428, “Turning a Tumor Microenvironment Pitfall into Opportunity: Discovery of Benzamidoxime as PD-L1 Ligand with pH-Dependent Potency” (International Journal of Molecular Sciences, 2023).
“Also recorded” adds a separate entry of the source. Where two headings read alike, the source gives them in different places.

Experiments:
[1] = target: T1, NT650/PD-L1 (recombinant human PD-L1) (Homo sapiens, UniProt Q9NZQ7); assay: Single-point MST binding assay; conditions: 250 µM compound; for Single-point binding result (in words): NT650/PD-L1; for Binder (single-point binder flag): 50 nM NT650/PD-L1, pH 7.2, F-norm outside vehicle ± 3 SD
T1 construct: purchased Abcam ab167713
T1 sequence (Q9NZQ7 19-290): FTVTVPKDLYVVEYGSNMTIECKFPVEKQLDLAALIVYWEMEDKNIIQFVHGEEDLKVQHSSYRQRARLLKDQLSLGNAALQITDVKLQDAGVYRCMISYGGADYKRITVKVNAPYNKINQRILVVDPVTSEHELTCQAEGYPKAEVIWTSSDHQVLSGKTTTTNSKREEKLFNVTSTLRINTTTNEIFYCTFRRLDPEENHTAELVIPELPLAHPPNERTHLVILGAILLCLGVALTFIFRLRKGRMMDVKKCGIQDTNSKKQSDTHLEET
Method: Putative hit compounds were defined as those molecules inducing a thermophoretic movement of the ligand-bound complex with a fluorescent signal (F-norm) outside the signal value and three-fold standard deviations of the negative control (vehicle, DMSO).
(§1) Biophysical Binding Assays. A lyophilized form of the recombinant human PD-L1 protein was purchased from Abcam (ab167713, Abcam, Cambridge, UK) and reconstituted by adding sterile deionized water to reach a theoretical concentration of 400 µg/mL in PBS (PBS7.2: 50 mM KH2PO4, 0.05% Tween 20, pH 7.2). […] Then, the protein was labeled with a fluorescent dye using the Protein Labelling Kit RED-NHS (NT650, NanoTemper Technologies GmbH, Munich, Germany) and a 1:4 ratio (protein:dye). […] The unbounded fluorophore was removed by a size-exclusion chromatography column using a PBS7.2 storage buffer (pH 7.2). The removal of the unbounded fluorophore was also repeated by conditioning the size-exclusion chromatography column with a phosphate buffer at pH 6.2 (PBS6.2: 50 mM KH2PO4, 0.05% Tween 20, pH 6.2).
(§2) Ligand binding experiments were performed using MST (Monolith NT.115; NanoTemper Technologies GmbH, Munich, Germany). This method is based on the principle of thermophoresis, which is the movement of a biomolecular complex in a temperature gradient depending on the size, charge, and hydration shell that typically change upon ligand/target interaction. The selected 10 highly soluble fragments were purchased from Life Chemicals. […] A vehicle of DMSO 2% was used as negative control.
Single-point binding assays were carried out, recording the MST signal for each capillary at medium laser power and 40% LED power, choosing the manual mode with a 19/20 s hot region. Each experiment was repeated three times employing premium-coated capillaries.

[2] = target: T1, NT650/PD-L1 (recombinant human PD-L1); assay: Full-point MST binding assay (Kd) at pH 7.2 and 6.2; conditions: for BEI (pH 6.2) / BEI: BEI = pKd/MW (kDa); for BEI: pH 7.2; for delta increment of BEI: pH 6.2 versus pH 7.2
Method: These compounds were next tested in full ligand binding assays against NT650/PD-L1 at pH 7.2, using the scalar concentration of each compound to obtain binding curves and the relative dissociation constants (Kd).
as §1, §2
Each compound was tested starting the 1:1 dilution from a 1 mM concentration in MST buffer (PBS7.2 and PBS6.2) with 2% DMSO. An amount of 10 µL solution of 100 nM NT650/PD-L1 was added to each compound dilution and mixed to halve the final concentration of each component, including 2% DMSO, and reach a reaction volume of 20 µL. After incubating the mixtures for 30 min, samples were loaded into 16 premium-coated capillary tubes for MST analysis. MST signals were recorded for each capillary at medium laser power and 40% LED power, choosing the manual mode with 19/20s hot region.
The Binding Efficiency Index (BEI) was calculated using the following equation [Equation (1)] [43]:BEI = pKd/MW (kDa)(1)
(§3) In all binding experiments and ligand binding displacement assays, raw data were analyzed using MO.Affinity analysis software v2.3 (NanoTemper Technologies GmbH, Munich, Germany). Kd values were extrapolated by compound concentration-dependent changes of the NT650/PD-L1 F-norm signals using MO.Affinity analysis software v2.3.
(§4) MST experiments were carried out using a Monolith NT.115 instrument (NanoTemper Technologies GmbH, Munich, Germany).

[3] = pKa by potentiometric titration (SiriusT3); assay type: physicochemical; conditions: 25 °C, n.3
Text: The first value (pKa1) corresponds to the deprotonated state of the protonated oxime nitrogen atom, entailing the neutral form. The second value (pKa2) is associated to the deprotonation of the oxime hydroxyl group, providing the anionic form of the compound. The presence of electron-withdrawing and/or -donating groups on the benzene ring may affect these values, entailing different stabilities of the cationic, neutral, and anionic species at a given pH. Accordingly, we used a potentiometric titration method to determine the pKa values of VIS310 and its analogues (9, 16–20).
Table 3 reports the experimental pKa values of BMS-202 (5), VIS310 (9), and its analogues (16–20), as obtained using SiriusT3 instrument. […] Therefore, the very high pKa value corresponding to the deprotonation of the oxime hydroxyl group was not experimentally determined in the compounds. Conversely, one or two pKa values were obtained, depending on the presence of a phenol moiety in the benzamidoxime derivatives. […] This is more evident with the insertion of the para hydroxyl group in the compounds VIS1201 (17; pKa1 = 5.35), VIS1202 (18; pKa1 = 5.38), VIS1203 (19; pKa1 = 5.38), and VIS310 (9; pKa1 = 5.65). These latter compounds show also a second value of the acid dissociation constant (pKa2) that corresponds to the deprotonated state of the phenolic group, entailing the anionic form of the compound. […] At pH 7.2, the microspecies adopting a neutral form increases, whereas the cationic form decreases, and a minor part of the microspecies starts adopting an anionic form (Figures S2 and S3, supplementary material).
Physicochemical Property Evaluations. Acidic constants (calcpKa) of compounds were calculated using the calculator plugin Marvin (v20.11, 2021; ChemAxon, Budapest, Hungary).
Each experiment was performed by specifying the sample weight, number of expected pKa values, calculated pKa (calcpKa) values, titration mode, and number of titrations (n.3). In order to measure the pKa of a compound, a sample concentration of 1 mM was prepared and dissolved, adding methanol as the co-solvent. […] Titrations of compounds 16–20 were performed using a ratio of 45%, 40%, 35% methanol. The Yasuda–Shedlovsky method was chosen to extrapolate aqueous pKa values. The R^2 value was used to evaluate the validity of the assay with a co-solvent, and the results were considered acceptable with a R^2 value ≥ 0.9 (Table S3, supplementary material). The accuracy of the pKa assay was also evaluated using the buffer index profile of the analyte. Specifically, the buffering capacity signal of the analyte must be above the intrinsic buffering capacity of water in order to have an accurate potentiometric measurement. Results were analyzed using Sirius T3 software v1.1.3.

[4] = target: T2, PD-1/PD-L1 complex (Homo sapiens, UniProt Q9NZQ7); assay: Ligand binding displacement assay of PD-1/PD-L1 complex (MST); conditions: pH 6.2, 50 and 100 μM
T2 construct: purchased Abcam ab167713 (PD-L1)
T2 sequence (Q9NZQ7 19-238 limits assumed, one chain of several): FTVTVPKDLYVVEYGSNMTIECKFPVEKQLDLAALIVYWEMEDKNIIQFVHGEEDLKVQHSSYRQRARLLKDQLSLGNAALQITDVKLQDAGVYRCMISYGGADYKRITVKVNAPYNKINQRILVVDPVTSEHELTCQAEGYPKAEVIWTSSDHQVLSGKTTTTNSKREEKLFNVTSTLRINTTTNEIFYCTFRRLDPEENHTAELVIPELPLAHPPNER
Method: This study was carried out with MST.
Ligand binding displacement assays were carried out with MST. […] The reconstitution of the protein was done by adding sterile deionized water to achieve a final concentration of 1 mg/mL in PBS7.2. […] The protein was tested starting the 1:1 dilution from a 26 μM concentration in MST buffer (PBS6.2) with 2% DMSO. […] After incubating the mixtures for 40 min in the dark, samples were loaded into 16 premium-coated capillary tubes for MST analysis. MST signals were recorded for each capillary at medium laser power and 80% LED power, choosing the Default on Time (DoT) mode with 4/5s hot region.
as §3, §4

[5] = set-up: method as in PMID 25621618; conditions: UV/vis titration, cited from earlier work
[6] = pH 7.2, n.3, read-out: Kd ± c.v.
[7] = oxime nitrogen atom, methanol co-solvent, Yasuda–Shedlovsky extrapolation, read-out: pKa1
[8] = phenolic group (9, 17–19), secondary amine group (5), read-out: pKa2
[9] = pH 6.2, n.3, read-out: Kd ± c.v.

SMILES	Single-point binding result (in words) [1]	Kd [2, 6] [µM]	pKa [3, 7]	Kd [2, 9] [µM]	BEI (pH 6.2) [2]	other results
NCCSc1c[nH]c2ccccc12 [VIS284]	hit compounds	> 250				
NCc1n[nH]c(=O)c2ccccc12 [VIS285]	at the borderline of the definition criterion	> 250				Binder (single-point binder flag) [1]: x/o
[H]/N=C1\NC(=O)[C@H](CC(=O)Nc2cccc3ccccc23)S1 [VIS303]	hit compounds	> 250				
Cc1cc(/C(N)=N/O)cc(C)c1O [VIS310]	hit compounds	164	5.65 ± 0.01	47.8	24.0	pKa [3, 8]: 9.32 ± 0.02; BEI [2]: 21.0
O=C(NCc1ccc(F)cc1)c1ccc2nc[nH]c2c1 [VIS545]	at the borderline of the definition criterion	> 250				Binder (single-point binder flag) [1]: x/o
Cc1ccc(Cn2c(S)nc3c2c(=O)n(C)c(=O)n3C)cc1 [VIS826]		> 250				
O=C(O)c1cccc2c1-c1ccccc1OC2 [VIS877]		> 250				
COC(=O)c1ccc(C)c2c1-c1ccccc1OC2 [VIS879]		> 250				
C[C@]1(O)CC[C@@H]1N1CC2CCCCC2C1 (some centres unmarked) [VIS1079]	at the borderline of the definition criterion					Binder (single-point binder flag) [1]: x/o; Kd ([2]; Kd ± c.v., pH 7.2, n.3): > 250 µM
Cc1cc(C)cc(C(=N)NO)c1 [VIS1200]		> 1000	5.26 ± 0.01	95.6 ± 20.6	24.5	
N=C(NO)c1ccc(O)cc1 [VIS1201]		> 1000	5.35 ± 0.12	45.2 ± 10.6	28.6	pKa [3, 8]: 8.64 ± 0.01; Inhibition of PD-1/PD-L1 interaction (in words) [4]: dose-dependently inhibits the PD-1/PD-L1 interaction; also recorded: dose-dependently inhibit the formation of the PD-1/PD-L1 complex; delta increment of BEI [2]: +8.9; BEI [2]: 19.7
Cc1cc(C(=N)NO)ccc1O [VIS1202]		> 1000	5.38 ± 0.01	55.4 ± 9.86	25.6	pKa [3, 8]: 8.97 ± 0.03
Cc1cc(O)ccc1C(=N)NO [VIS1203]		> 1000	5.38 ± 0.01	54.9 ± 8.2	25.7	pKa [3, 8]: 9.17 ± 0.02
N=C(NO)c1ccccc1-c1ccccc1 [VIS1204]		148 ± 71.3	5.3 ± 0.01	70.8 ± 12.7	19.6	delta increment of BEI [2]: +1.5; BEI [2]: 18.1
Nc1[nH]ncc1-c1ccc(F)cc1F [VIS32926]	at the borderline of the definition criterion	> 250				Binder (single-point binder flag) [1]: x/o
NC(=NO)c1ccccc1 [benzamidoxime]						pKa2 ([5]; oxime hydroxyl group): 12.36; pKa1 ([5]; protonated oxime nitrogen): 4.85
